# Test results published in US12171813B2, “Methods of and compositions for reducing gene expression and/or activity” (Christiana Care Gene Editing Institute, Inc., priority 2021, dated 2024).
# Columns and labels:
# EGFR gene = assay: Screening of SureKill guide RNAs in the EGFR gene for ability to induce indels; assay type: cell-based; details: transfections of individual guide RNAs (spCas9 RNP); PDMR human lung adenocarcinoma cells with EGFR L858R; DECODR
# Protocol: Human lung squamous cell carcinoma NCI-H1703 clone 44-25 cells were derived from NCI-H1703 cells (#CRL-5889) which were purchased from ATCC (Manassas, VA, USA). NCI-H1703 clone 44-25 cells contains R34G mutation (C 4 G) in NFE2L2 gene. H1703 clone 44-25 cells were cultured in ATCC formulation RPMI-1640 with 10% FBS. T75 flasks were used and cells were split 1:5 upon reaching 90% confluency. Human lung adenocarcinoma cells (Dist. Lot. No. LG0703-F948-PDC) were acquired from the National Institute of Health's National Cancer Institute's Patient-Derived Models Repository (PDMR). This PDMR cell line contains the L858R mutation (T 4 G) in the EGFR gene. The PDMR cells were maintained in Advanced DMEM/F12 media containing 10% FBS, 0.4 μg/mL hydrocortisone, 0.01 μg/mL EGF Recombinant Human Protein, 24 μg/mL adenine, and 2 mM L-Glutamine. T75s were used and cells were split 1:3 upon reaching 90% confluency. All cultures were maintained in cell culture incubators at 37° C. and 5% CO2.
# Ribonucleoproteins (RNP) are complexed by incubating 250 pmol of purified synthetic gRNA (Synthego Corporation, Redwood City, CA) with 50 pmol of purified spCas9 (Synthego Corporation, Redwood City, CA) at room temperature in nuclease-free 1× TE buffer for 15 minutes.
# Transfections were carried out using the Lonza Nuclefector 4d. Cultures in t75s at 90% confluence were split 1:2 24 hours prior to transfection. RNPs were complexed at 250:50 pmol for 30 minutes prior to transfection, during which time cells were harvested and counted. All reactions were 100 μL and contained 1 e6 cells. Lonza SF solution and Nucleofector program CM-130 were used in all transfections of the H1703 cell line. Lonza SE solution and Nucleofector program CA-137 were used in all transfections of the PDMR. After transfection, 500 μL of media that had been equilibrated to cell culture CO2 and temperature conditions was added to each 100 μL cuvettes. Cuvettes were then placed in the incubator. After 20 minutes, the entire content of each cuvette was seeded into 3 mL of media in a 6 well plate. After 72 hours, samples were dissociated using 200 μL Trypsin 0.25% for 5 minutes. 800 μL culture media was used to quench and split into 1.5 mL tubes each containing 500 μL of the sample. Tubes were spun at 300×g for 5 minutes. One of the tubes was placed in the −20° C. freezer and the other was resuspended in 500 μL of Trizol for RNA extraction and cDNA synthesis.
# All sequencing was performed on the Applied Biosystems SeqStudio. The BigDye Terminator v3.1 Cycle Sequencing Kit was used to prepare samples for sequencing. Resulting sequences were analyzed with DECODR to determine indel rates (Bloh et al., CRISPR J. 4:120-31 (2021)).
# Human EGFR is a frequently mutated gene that is associated with cancers. One of the most common mutations is L858R which results in the creation of a novel PAM site, making it a targetable sequence by CRISPR. Like the R34G mutation, the CRISPR designed to target the L858R mutation is not highly efficient on its own. By combining the L858R-targeting CRISPR with another CRISPR of high efficiency in a downstream intronic region, exon skipping can be induced, resulting in a higher efficiency of functional knockout than the L858R targeting CRISPR alone. To find a suitable gRNA to pair with the L858R targeting CRISPR, we selected the intron between exons 21 and 22 (FIG. 6). A series of gRNAs were created in this region and screened for their ability to induce indels, a measure of their activity using DECODR (Bloh et al., CRISPR J. 4:120-31 (2021)) (Table 3).
# In Table 3, all sequences are listed from 5′ to 3′. Indel percent, a measure of CRISPR activity, is based on transfections of individual guide RNAs. All guide RNAs, with the exception of L858R, were designed in the intron between exons 21 and 22.
# EGFR = assay: cDNA PCR analysis of exon skipping / full-size transcript in EGFR; assay type: cell-based, Human; details: intron-targeting gRNA paired with L858R targeting CRISPR, compared to L858R targeting CRISPR alone
# Protocol: After CRISPR reactions, total RNA was prepared, and cDNA synthesized for PCR amplification of the target region from EGFR. PCR-amplified DNA was then analyzed by electrophoresis through a 1% agarose gel for 75 minutes at 80v. DNA was stained with SYBR Safe. Lanes 1 and 13: NEB 2 Log Ladder; Lane 2: Scrambled gRNA; Lane 3: EGFR 21-22 SureKill gRNA 11 alone; Lane 4: EGFR 21-22 SureKill gRNA 13 alone; Lane 5: EGFR 21-22 SureKill gRNA 16 alone; Lane 6: EGFR 21-22 SureKill gRNA 17 alone; Lane 7: EGFR 21-22 SureKill gRNA 19 alone; Lane 8: EGFR 21-22 SureKill gRNA 22 alone; Lane 9: EGFR 21-22 SureKill gRNA 23 alone; Lane 10: EGFR 21-22 SureKill gRNA 27 alone; Lane 11: EGFR 21-22 SureKill gRNA 28 alone; Lane 12: EGFR 21-22 SureKill gRNA 29 alone. On the left side of the image are markers indicating DNA size in bp.
# After CRISPR reactions, total RNA was prepared, and cDNA synthesized for semi-quantitative PCR amplification of the target region from EGFR. PCR amplification was performed for 25 cycles. PCR-amplified DNA was then analyzed by electrophoresis through a 1% agarose gel for 75 minutes at 80v. DNA was stained with SYBR Safe. […]
# Transfections were carried out using the Lonza Nuclefector 4d. […] RNPs were complexed at 250:50 pmol for 30 minutes prior to transfection, during which time cells were harvested and counted. […]
substance,measurement,setting,value
"EGFR 21-22 SureKill gRNA 28: EGFR intron 21-22 guide RNA GCAGCCTGGTCCCTGGTGTC, SEQ ID NO:51 (listed as DNA, chemistry not given here)",indel %,EGFR gene,97.6%
same,"reduction in the full-size transcript (cDNA, semi-quantitative PCR 25 cycles)",EGFR,enhanced reduction in the full-size transcript
